Experiments:
Test in all cases: KINOMEscan competition binding
Details in all cases: compound 0.5 µM
RIOK3 (human) = RIOK3 (human) (UniProt O14730)
RPS6KB1 (human) = RPS6KB1 (human) (UniProt P23443)
MTOR (human) = MTOR (human) (UniProt P42345)
PRKAA1 (human) = PRKAA1 (human) (UniProt Q13131)
STK39 (human) = STK39 (human) (UniProt Q9UEW8)
ULK3 (human) = ULK3 (human) (UniProt Q6PHR2)
FYN (human) = FYN (human) (UniProt P06241)
ACVR2A (human) = ACVR2A (human) (UniProt P27037)
SIK1 (human) = SIK1 (human) (UniProt P57059)
CAMK1D (human) = CAMK1D (human) (UniProt Q8IU85)
TEC (human) = TEC (human) (UniProt P42680)
SRC (human) = SRC (human) (UniProt P12931)
CASK (human) = CASK (human) (UniProt O14936)
PKN2 (human) = PKN2 (human) (UniProt Q16513)
CSNK2A1 (human) = CSNK2A1 (human) (UniProt P68400)
FER (human) = FER (human) (UniProt P16591)
PDGFRA (human) = PDGFRA (human) (UniProt P16234)
TAOK2 (human) = TAOK2 (human) (UniProt Q9UL54)
MST1R (human) = MST1R (human) (UniProt Q04912)
PIK3CG (human) = PIK3CG (human) (UniProt P48736)
CSNK1A1 (human) = CSNK1A1 (human) (UniProt P48729)
PLK2 (human) = PLK2 (human) (UniProt Q9NYY3)
MAP3K9 (human) = MAP3K9 (human) (UniProt P80192)
PIP4K2C (human) = PIP4K2C (human) (UniProt Q8TBX8)
PRKD2 (human) = PRKD2 (human) (UniProt Q9BZL6)
PRKCI (human) = PRKCI (human) (UniProt P41743)
[1] = tested on: PIK3CA (human), P42336 [I800L]
STK3 (human) = STK3 (human) (UniProt Q13188)
ALK (human) = ALK (human) (UniProt Q9UM73)
MAK (human) = MAK (human) (UniProt P20794)
MAP3K4 (human) = MAP3K4 (human) (UniProt Q9Y6R4)
MKNK2 (human) = MKNK2 (human) (UniProt Q9HBH9)
MAP4K2 (human) = MAP4K2 (human) (UniProt Q12851)
MAPK4 (human) = MAPK4 (human) (UniProt P31152)
GRK4 (human) = GRK4 (human) (UniProt P32298)
RIOK2 (human) = RIOK2 (human) (UniProt Q9BVS4)
CDK15 (human) = CDK15 (human) (UniProt Q96Q40)
ACVR1 (human) = ACVR1 (human) (UniProt Q04771)
NEK6 (human) = NEK6 (human) (UniProt Q9HC98)
Sequence of NEK6 (human) (Q9HC98 whole entry, looked up): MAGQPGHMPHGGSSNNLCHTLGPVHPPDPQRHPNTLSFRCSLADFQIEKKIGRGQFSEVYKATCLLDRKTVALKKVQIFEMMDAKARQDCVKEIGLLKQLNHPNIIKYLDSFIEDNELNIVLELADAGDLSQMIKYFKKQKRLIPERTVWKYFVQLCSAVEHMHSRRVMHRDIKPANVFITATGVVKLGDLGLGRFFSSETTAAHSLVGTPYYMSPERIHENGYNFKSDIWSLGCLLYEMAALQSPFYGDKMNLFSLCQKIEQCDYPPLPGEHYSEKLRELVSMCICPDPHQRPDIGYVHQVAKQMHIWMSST

Sequence of STK3 (human) (Q13188 whole entry, looked up): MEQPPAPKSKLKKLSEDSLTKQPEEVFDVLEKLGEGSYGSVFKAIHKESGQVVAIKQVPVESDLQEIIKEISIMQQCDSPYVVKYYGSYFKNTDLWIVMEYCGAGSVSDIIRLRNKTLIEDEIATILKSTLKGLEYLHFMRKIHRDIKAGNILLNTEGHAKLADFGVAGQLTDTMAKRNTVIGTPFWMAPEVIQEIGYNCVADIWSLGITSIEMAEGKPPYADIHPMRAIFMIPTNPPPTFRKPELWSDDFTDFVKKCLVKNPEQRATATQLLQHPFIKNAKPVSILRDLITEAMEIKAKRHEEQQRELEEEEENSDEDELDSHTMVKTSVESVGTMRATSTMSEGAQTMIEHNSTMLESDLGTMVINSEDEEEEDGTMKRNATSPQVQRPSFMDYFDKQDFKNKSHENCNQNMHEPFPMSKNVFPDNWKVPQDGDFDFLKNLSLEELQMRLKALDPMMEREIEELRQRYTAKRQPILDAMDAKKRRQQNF
Sequence of PLK2 (human) (Q9NYY3 whole entry, looked up): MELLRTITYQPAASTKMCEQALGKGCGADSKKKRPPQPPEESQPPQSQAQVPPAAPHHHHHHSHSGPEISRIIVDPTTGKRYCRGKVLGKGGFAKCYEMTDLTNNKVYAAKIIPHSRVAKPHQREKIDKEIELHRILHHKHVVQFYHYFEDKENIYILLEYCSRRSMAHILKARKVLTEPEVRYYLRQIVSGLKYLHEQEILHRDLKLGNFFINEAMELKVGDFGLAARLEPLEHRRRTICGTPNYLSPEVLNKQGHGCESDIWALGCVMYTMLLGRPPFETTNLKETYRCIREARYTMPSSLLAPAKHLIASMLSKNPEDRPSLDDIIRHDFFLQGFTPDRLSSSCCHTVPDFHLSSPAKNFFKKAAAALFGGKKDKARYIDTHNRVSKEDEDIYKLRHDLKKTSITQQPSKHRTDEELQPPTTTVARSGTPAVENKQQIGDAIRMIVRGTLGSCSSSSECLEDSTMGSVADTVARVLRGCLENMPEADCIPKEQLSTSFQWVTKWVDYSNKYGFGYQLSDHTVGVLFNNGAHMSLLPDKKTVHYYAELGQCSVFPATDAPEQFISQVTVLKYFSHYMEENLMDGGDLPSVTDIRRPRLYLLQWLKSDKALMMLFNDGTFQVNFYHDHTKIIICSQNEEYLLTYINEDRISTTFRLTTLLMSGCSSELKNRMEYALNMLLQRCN
Sequence of ALK (human) (Q9UM73 whole entry, looked up): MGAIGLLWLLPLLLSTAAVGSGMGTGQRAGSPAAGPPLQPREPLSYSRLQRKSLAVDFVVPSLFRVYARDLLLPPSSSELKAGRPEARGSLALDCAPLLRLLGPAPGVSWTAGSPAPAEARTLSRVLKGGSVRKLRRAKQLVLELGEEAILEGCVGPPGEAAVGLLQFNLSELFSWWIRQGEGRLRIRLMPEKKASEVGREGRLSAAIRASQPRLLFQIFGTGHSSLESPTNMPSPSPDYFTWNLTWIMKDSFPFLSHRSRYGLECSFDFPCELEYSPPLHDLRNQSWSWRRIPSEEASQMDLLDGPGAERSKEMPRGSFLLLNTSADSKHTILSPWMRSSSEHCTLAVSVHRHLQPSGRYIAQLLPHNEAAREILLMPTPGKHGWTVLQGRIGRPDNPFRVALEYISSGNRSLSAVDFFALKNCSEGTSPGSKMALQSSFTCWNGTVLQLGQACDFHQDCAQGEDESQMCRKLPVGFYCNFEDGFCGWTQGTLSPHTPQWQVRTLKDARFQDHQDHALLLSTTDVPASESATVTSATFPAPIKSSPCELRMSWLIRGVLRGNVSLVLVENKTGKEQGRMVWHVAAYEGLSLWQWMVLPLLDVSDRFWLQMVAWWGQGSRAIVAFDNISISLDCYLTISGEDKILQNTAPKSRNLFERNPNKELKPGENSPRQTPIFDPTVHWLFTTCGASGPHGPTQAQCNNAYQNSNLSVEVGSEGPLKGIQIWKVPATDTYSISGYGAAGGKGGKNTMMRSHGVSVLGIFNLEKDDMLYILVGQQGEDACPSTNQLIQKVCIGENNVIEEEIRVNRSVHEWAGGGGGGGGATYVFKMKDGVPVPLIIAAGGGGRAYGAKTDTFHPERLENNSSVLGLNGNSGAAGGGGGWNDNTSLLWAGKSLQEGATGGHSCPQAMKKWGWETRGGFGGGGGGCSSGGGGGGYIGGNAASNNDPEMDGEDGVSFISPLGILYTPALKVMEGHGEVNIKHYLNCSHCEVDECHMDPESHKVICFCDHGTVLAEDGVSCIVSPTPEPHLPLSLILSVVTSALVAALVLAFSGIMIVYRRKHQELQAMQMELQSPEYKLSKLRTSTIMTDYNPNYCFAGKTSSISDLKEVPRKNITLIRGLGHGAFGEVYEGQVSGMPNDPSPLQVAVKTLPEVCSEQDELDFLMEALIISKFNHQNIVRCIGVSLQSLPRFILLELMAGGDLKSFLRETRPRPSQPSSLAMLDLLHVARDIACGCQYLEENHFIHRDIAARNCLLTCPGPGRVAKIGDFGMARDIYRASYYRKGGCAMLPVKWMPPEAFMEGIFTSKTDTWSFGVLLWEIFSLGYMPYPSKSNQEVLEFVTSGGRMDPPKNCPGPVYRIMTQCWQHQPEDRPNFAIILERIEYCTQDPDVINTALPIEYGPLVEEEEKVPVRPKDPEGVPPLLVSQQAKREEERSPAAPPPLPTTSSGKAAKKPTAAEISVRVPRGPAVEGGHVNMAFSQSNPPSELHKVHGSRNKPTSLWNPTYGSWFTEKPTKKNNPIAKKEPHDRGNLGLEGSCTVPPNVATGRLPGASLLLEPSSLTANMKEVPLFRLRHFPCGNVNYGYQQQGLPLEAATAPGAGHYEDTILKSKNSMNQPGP
Sequence of ULK3 (human) (Q6PHR2 whole entry, looked up): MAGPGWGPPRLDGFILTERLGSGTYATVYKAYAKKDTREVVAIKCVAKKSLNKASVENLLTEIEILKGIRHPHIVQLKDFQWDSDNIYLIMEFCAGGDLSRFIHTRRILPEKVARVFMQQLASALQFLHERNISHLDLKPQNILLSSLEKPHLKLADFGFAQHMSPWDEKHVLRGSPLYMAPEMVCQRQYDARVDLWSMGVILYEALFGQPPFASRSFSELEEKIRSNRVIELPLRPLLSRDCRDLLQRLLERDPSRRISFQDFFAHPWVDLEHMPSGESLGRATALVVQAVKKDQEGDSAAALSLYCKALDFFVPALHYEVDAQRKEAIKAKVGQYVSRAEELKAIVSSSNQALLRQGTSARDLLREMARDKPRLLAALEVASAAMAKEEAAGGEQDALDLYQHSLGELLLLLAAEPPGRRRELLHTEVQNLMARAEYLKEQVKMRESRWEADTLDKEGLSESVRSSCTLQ
Sequence of MAP3K9 (human) (P80192 whole entry, looked up): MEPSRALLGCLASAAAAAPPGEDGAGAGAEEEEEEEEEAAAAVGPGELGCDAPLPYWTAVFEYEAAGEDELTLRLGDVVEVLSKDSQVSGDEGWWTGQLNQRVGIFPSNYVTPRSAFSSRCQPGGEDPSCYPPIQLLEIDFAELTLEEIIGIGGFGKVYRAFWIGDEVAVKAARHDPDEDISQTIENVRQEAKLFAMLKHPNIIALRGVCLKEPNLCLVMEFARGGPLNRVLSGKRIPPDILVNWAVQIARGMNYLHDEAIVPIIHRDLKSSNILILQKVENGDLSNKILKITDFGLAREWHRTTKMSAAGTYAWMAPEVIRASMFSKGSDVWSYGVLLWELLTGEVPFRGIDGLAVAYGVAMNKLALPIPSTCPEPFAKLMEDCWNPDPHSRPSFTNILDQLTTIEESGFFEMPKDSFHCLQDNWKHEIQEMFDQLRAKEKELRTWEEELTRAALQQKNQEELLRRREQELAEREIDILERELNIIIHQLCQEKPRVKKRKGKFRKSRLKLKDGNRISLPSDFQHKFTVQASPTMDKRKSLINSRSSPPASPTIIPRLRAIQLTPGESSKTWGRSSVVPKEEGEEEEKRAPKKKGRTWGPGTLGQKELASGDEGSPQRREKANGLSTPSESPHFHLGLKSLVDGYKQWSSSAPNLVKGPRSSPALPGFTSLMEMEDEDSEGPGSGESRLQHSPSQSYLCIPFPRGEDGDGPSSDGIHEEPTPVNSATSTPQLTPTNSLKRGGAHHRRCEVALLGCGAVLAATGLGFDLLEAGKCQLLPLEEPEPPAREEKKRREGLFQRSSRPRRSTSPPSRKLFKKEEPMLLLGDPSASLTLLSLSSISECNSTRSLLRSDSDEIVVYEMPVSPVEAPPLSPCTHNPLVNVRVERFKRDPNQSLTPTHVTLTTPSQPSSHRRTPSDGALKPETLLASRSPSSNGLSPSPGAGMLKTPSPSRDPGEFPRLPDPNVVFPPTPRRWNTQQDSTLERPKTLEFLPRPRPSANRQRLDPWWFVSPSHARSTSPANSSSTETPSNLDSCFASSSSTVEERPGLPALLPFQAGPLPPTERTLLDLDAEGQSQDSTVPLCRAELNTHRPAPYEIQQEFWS
Sequence of CSNK2A1 (human) (P68400 whole entry, looked up): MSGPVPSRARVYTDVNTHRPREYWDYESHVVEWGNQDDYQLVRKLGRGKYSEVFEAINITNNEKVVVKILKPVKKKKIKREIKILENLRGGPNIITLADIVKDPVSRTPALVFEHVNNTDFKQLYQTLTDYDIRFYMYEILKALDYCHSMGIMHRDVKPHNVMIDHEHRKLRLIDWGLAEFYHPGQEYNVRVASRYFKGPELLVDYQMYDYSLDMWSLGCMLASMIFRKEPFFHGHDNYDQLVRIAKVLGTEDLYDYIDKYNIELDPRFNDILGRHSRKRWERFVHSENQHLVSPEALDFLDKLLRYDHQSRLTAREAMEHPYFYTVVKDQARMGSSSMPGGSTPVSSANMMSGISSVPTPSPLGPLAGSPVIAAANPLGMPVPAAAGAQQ

SMILES: Cn1c2ccccc2c2c3c(c4c5ccccc5n(CCC#N)c4c21)CNC3=O
- kinase still bound, per cent of control (RIOK3 (human)): 1.2%
- kinase still bound, per cent of control (RPS6KB1 (human)): 23%
- kinase still bound, per cent of control (MTOR (human)): 52%
- kinase still bound, per cent of control (PRKAA1 (human)): 59%
- kinase still bound, per cent of control (STK39 (human)): 76%
- kinase still bound, per cent of control (ULK3 (human)): 15%
- kinase still bound, per cent of control (FYN (human)): 92%
- kinase still bound, per cent of control (ACVR2A (human)): 100%
- kinase still bound, per cent of control (SIK1 (human)): 83%
- kinase still bound, per cent of control (CAMK1D (human)): 93%
- kinase still bound, per cent of control (TEC (human)): 92%
- kinase still bound, per cent of control (SRC (human)): 100%
- kinase still bound, per cent of control (CASK (human)): 72%
- kinase still bound, per cent of control (PKN2 (human)): 12%
- kinase still bound, per cent of control (CSNK2A1 (human)): 80%
- kinase still bound, per cent of control (FER (human)): 3.2%
- kinase still bound, per cent of control (PDGFRA (human)): 100%
- kinase still bound, per cent of control (TAOK2 (human)): 7.7%
- kinase still bound, per cent of control (MST1R (human)): 100%
- kinase still bound, per cent of control (PIK3CG (human)): 3.1%
- kinase still bound, per cent of control (CSNK1A1 (human)): 100%
- kinase still bound, per cent of control (PLK2 (human)): 100%
- kinase still bound, per cent of control (MAP3K9 (human)): 0.65%
- kinase still bound, per cent of control (PIP4K2C (human)): 75%
- kinase still bound, per cent of control (PRKD2 (human)): 4.8%
- kinase still bound, per cent of control (PRKCI (human)): 86%
- kinase still bound, per cent of control [1]: 19%
- kinase still bound, per cent of control (STK3 (human)): 0.8%
- kinase still bound, per cent of control (ALK (human)): 2.1%
- kinase still bound, per cent of control (MAK (human)): 100%
- kinase still bound, per cent of control (MAP3K4 (human)): 99%
- kinase still bound, per cent of control (MKNK2 (human)): 11%
- kinase still bound, per cent of control (MAP4K2 (human)): 1.1%
- kinase still bound, per cent of control (MAPK4 (human)): 100%
- kinase still bound, per cent of control (GRK4 (human)): 3%
- kinase still bound, per cent of control (RIOK2 (human)): 64%
- kinase still bound, per cent of control (CDK15 (human)): 100%
- kinase still bound, per cent of control (ACVR1 (human)): 21%
- kinase still bound, per cent of control (NEK6 (human)): 100%

Reference: the kinase profiling compilation of Christmann-Franck et al. (2016)
